In publication PMC8580996, “2-Oxoglutarate derivatives can selectively enhance or inhibit the activity of human oxygenases” (Nature Communications, 2021):

What was measured:
[1] = biological target: T1, AspH (Homo sapiens, UniProt Q12797); assay: Competition assay in a single reaction vessel, AspH-catalyzed hydroxylation (SPE-MS); format: biochemical
T1 construct: the tetratricopeptide repeat domain (His6-AspH315-758), was produced and purified as previously reported; made in house
T1 sequence (Q12797 315-758): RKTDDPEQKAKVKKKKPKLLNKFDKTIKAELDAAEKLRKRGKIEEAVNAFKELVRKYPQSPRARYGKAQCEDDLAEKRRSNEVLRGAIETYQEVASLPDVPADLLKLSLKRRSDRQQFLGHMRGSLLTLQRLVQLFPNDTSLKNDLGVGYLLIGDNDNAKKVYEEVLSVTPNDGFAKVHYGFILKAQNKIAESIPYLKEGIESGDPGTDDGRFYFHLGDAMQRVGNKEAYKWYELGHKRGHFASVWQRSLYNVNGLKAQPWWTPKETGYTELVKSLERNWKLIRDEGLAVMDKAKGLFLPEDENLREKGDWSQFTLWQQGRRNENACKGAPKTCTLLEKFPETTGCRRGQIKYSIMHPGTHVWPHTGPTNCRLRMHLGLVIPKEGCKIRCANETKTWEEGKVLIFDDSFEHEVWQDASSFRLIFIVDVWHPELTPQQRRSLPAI
Experimental: Mean of three independent runs (n = 3; mean ± SD). […] Cosubstrates: a 20 μM 2OG; b 20 μM 2OG; c 20 μM 1; d 20 μM 12; e 20 μM 12 and 100 μM 2OG; f 100 μM 14. Source data are provided as a Source Data file.
Mean of three independent runs (n = 3; mean ± SD). […] Source data are provided as a Source Data file.
Peptide turnover was monitored by SPE-MS using the same instrument configuration (with the exception that the peptides were eluted from the SPE cartridge with 0.1%v/v aqueous formic acid in 80/20 v/v acetonitrile/water) as described above.
FIH and AspH-catalyzed peptide hydroxylations were analyzed simultaneously using SPE-MS as described in the
Methods section; competition experiments were performed in the same reaction vessel using equimolar 2OG
oxygenase and substrate concentrations. […]
Source data are provided as a Source Data file.
FIH and AspH-catalyzed peptide hydroxylations were analyzed simultaneously using SPE-
MS as described in the Methods section; competition experiments were performed in the same reaction vessel
using equimolar 2OG oxygenase and substrate concentrations. […]
2OG, 100 μM 14. Source data are provided as a Source Data file.

[2] = biological target: T1, AspH; parameters: method as in PMID 34163896; settings: hFX-CP101–119 substrate, 330 μM 2OG or 2OG derivative, t = 15 min; cited from earlier work

CCC(CC(=O)C(=O)O)C(=O)O (stereo not drawn) [compound 14, 4-ethyl-2OG]
AspH-catalyzed hydroxylation of hFX-EGFD1_86–124-4Ser ([1]; Fig 2f, 100 μM 14, absence of 2OG): not observed
AspH catalysis ([1]; Supplementary Fig 27, tenfold excess of 14 over 100 μM 2OG): entirely suppressed
AspH activity, %-substrate conversion [2]: <1%
